Tests used:
Experiment in all cases: relative viability (nuclei count vs DMSO), 5 days (fraction); higher = more cells survive
Neratinib + Palbociclib = compound: CCOc1cc2ncc(C#N)c(Nc3ccc(OCc4ccccn4)c(Cl)c3)c2cc1NC(=O)/C=C/CN(C)C [Neratinib] + CC(=O)c1c(C)c2cnc(Nc3ccc(N4CCNCC4)cn3)nc2n(C2CCCC2)c1=O [Palbociclib] (partner 0.5 µM)
How it was run: (§1)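 Dosing by pin tool came one day after lung cancer cell lines were seeded in 1536-well plates, using either one drug or a fixed anchor-drug dose plus five library-drug doses (not always all listed) in √10 steps. After 5 days, nuclei were counted on 4× images. Relative viability is treated-well nuclei count divided by vehicle-well nuclei count, and values are medians of duplicate plates.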

Neratinib + Dasatinib = compound: CCOc1cc2ncc(C#N)c(Nc3ccc(OCc4ccccn4)c(Cl)c3)c2cc1NC(=O)/C=C/CN(C)C [Neratinib] + Cc1nc(Nc2ncc(C(=O)Nc3c(C)cccc3Cl)s2)cc(N2CCN(CCO)CC2)n1 [Dasatinib] (partner 0.075 µM)
How it was run: as §1

Neratinib + Pemetrexed = compound: CCOc1cc2ncc(C#N)c(Nc3ccc(OCc4ccccn4)c(Cl)c3)c2cc1NC(=O)/C=C/CN(C)C [Neratinib] + Nc1nc2[nH]cc(CCc3ccc(C(=O)N[C@@H](CCC(=O)O)C(=O)O)cc3)c2c(=O)[nH]1 [Pemetrexed] (partner 0.2 µM)
How it was run: as §1

Neratinib + Vorinostat = compound: CCOc1cc2ncc(C#N)c(Nc3ccc(OCc4ccccn4)c(Cl)c3)c2cc1NC(=O)/C=C/CN(C)C [Neratinib] + O=C(CCCCCCC(=O)Nc1ccccc1)NO [Vorinostat] (partner 1 µM)
How it was run: as §1

PC-14 was tested, and the relative viability (Neratinib + Palbociclib; first compound 0.01 µM) was 0.625, the relative viability (Neratinib + Palbociclib; first compound 0.03162 µM) was 0.672 and the relative viability (Neratinib + Palbociclib; first compound 0.1 µM) was 0.474. It also gave a relative viability (Neratinib + Palbociclib; first compound 0.3162 µM) of 0.0909, a relative viability (Neratinib + Palbociclib; first compound 1 µM) of 0.0675 and a relative viability (Neratinib + Dasatinib; first compound 0.01 µM) of 0.22. The relative viability (Neratinib + Dasatinib; first compound 0.03162 µM) was 0.265, the relative viability (Neratinib + Dasatinib; first compound 0.1 µM) was 0.195 and the relative viability (Neratinib + Dasatinib; first compound 0.3162 µM) was 0.0282. The relative viability (Neratinib + Dasatinib; first compound 1 µM) was 0.0541, the relative viability (Neratinib + Pemetrexed; first compound 0.01 µM) was 0.128 and the relative viability (Neratinib + Pemetrexed; first compound 0.03162 µM) was 0.118. For the same cell line, the relative viability (Neratinib + Pemetrexed; first compound 0.1 µM) was 0.14, the relative viability (Neratinib + Pemetrexed; first compound 0.3162 µM) was 0.141 and the relative viability (Neratinib + Pemetrexed; first compound 1 µM) was 0.0777. For the same cell line, the relative viability (Neratinib + Vorinostat; first compound 0.01 µM) was 0.773, the relative viability (Neratinib + Vorinostat; first compound 0.03162 µM) was 0.754 and the relative viability (Neratinib + Vorinostat; first compound 0.1 µM) was 0.557. For the same cell line, the relative viability (Neratinib + Vorinostat; first compound 0.3162 µM) was 0.359 and the relative viability (Neratinib + Vorinostat; first compound 1 µM) was 0.0625.

With RERF-LC-KJ the relative viability (Neratinib + Palbociclib; first compound 0.01 µM) was 1.16, the relative viability (Neratinib + Palbociclib; first compound 0.03162 µM) was 1.16 and the relative viability (Neratinib + Palbociclib; first compound 0.1 µM) was 1.08. It also gave a relative viability (Neratinib + Palbociclib; first compound 0.3162 µM) of 0.84, a relative viability (Neratinib + Palbociclib; first compound 1 µM) of 0.467 and a relative viability (Neratinib + Dasatinib; first compound 0.01 µM) of 0.941. It also gave a relative viability (Neratinib + Dasatinib; first compound 0.03162 µM) of 0.822, a relative viability (Neratinib + Dasatinib; first compound 0.1 µM) of 0.681 and a relative viability (Neratinib + Dasatinib; first compound 0.3162 µM) of 0.653. For the same cell line, the relative viability (Neratinib + Dasatinib; first compound 1 µM) was 0.335, the relative viability (Neratinib + Pemetrexed; first compound 0.01 µM) was 0.484 and the relative viability (Neratinib + Pemetrexed; first compound 0.03162 µM) was 0.483. It also gave a relative viability (Neratinib + Pemetrexed; first compound 0.1 µM) of 0.505, a relative viability (Neratinib + Pemetrexed; first compound 0.3162 µM) of 0.477 and a relative viability (Neratinib + Pemetrexed; first compound 1 µM) of 0.405. The relative viability (Neratinib + Vorinostat; first compound 0.01 µM) was 0.705, the relative viability (Neratinib + Vorinostat; first compound 0.03162 µM) was 0.742 and the relative viability (Neratinib + Vorinostat; first compound 0.1 µM) was 0.55. For the same cell line, the relative viability (Neratinib + Vorinostat; first compound 0.3162 µM) was 0.66 and the relative viability (Neratinib + Vorinostat; first compound 1 µM) was 0.382.

SK-LU-1 gave a relative viability (Neratinib + Palbociclib; first compound 0.01 µM) of 0.389, a relative viability (Neratinib + Palbociclib; first compound 0.03162 µM) of 0.447 and a relative viability (Neratinib + Palbociclib; first compound 0.1 µM) of 0.376. For the same cell line, the relative viability (Neratinib + Palbociclib; first compound 0.3162 µM) was 0.373, the relative viability (Neratinib + Palbociclib; first compound 1 µM) was 0.288 and the relative viability (Neratinib + Dasatinib; first compound 0.01 µM) was 0.174. For the same cell line, the relative viability (Neratinib + Dasatinib; first compound 0.03162 µM) was 0.175, the relative viability (Neratinib + Dasatinib; first compound 0.1 µM) was 0.168 and the relative viability (Neratinib + Dasatinib; first compound 0.3162 µM) was 0.195. It also gave a relative viability (Neratinib + Dasatinib; first compound 1 µM) of 0.173, a relative viability (Neratinib + Pemetrexed; first compound 0.01 µM) of 1.01 and a relative viability (Neratinib + Pemetrexed; first compound 0.03162 µM) of 0.999. The relative viability (Neratinib + Pemetrexed; first compound 0.1 µM) was 0.932, the relative viability (Neratinib + Pemetrexed; first compound 0.3162 µM) was 0.917 and the relative viability (Neratinib + Pemetrexed; first compound 1 µM) was 0.49. The relative viability (Neratinib + Vorinostat; first compound 0.01 µM) was 0.805, the relative viability (Neratinib + Vorinostat; first compound 0.03162 µM) was 0.878 and the relative viability (Neratinib + Vorinostat; first compound 0.1 µM) was 0.728. The relative viability (Neratinib + Vorinostat; first compound 0.3162 µM) was 0.651 and the relative viability (Neratinib + Vorinostat; first compound 1 µM) was 0.421.

Cell Line SK-MES-1 has a relative viability (Neratinib + Palbociclib; first compound 0.01 µM) of 0.3, a relative viability (Neratinib + Palbociclib; first compound 0.03162 µM) of 0.327 and a relative viability (Neratinib + Palbociclib; first compound 0.1 µM) of 0.329. The relative viability (Neratinib + Palbociclib; first compound 0.3162 µM) was 0.281, the relative viability (Neratinib + Palbociclib; first compound 1 µM) was 0.247 and the relative viability (Neratinib + Dasatinib; first compound 0.01 µM) was 0.375. For the same cell line, the relative viability (Neratinib + Dasatinib; first compound 0.03162 µM) was 0.25, the relative viability (Neratinib + Dasatinib; first compound 0.1 µM) was 0.163 and the relative viability (Neratinib + Dasatinib; first compound 0.3162 µM) was 0.14. It also gave a relative viability (Neratinib + Dasatinib; first compound 1 µM) of 0.14, a relative viability (Neratinib + Pemetrexed; first compound 0.01 µM) of 1.01 and a relative viability (Neratinib + Pemetrexed; first compound 0.03162 µM) of 0.925. It also gave a relative viability (Neratinib + Pemetrexed; first compound 0.1 µM) of 0.89, a relative viability (Neratinib + Pemetrexed; first compound 0.3162 µM) of 0.529 and a relative viability (Neratinib + Pemetrexed; first compound 1 µM) of 0.308. It also gave a relative viability (Neratinib + Vorinostat; first compound 0.01 µM) of 1.12, a relative viability (Neratinib + Vorinostat; first compound 0.03162 µM) of 1.08 and a relative viability (Neratinib + Vorinostat; first compound 0.1 µM) of 1.05. The relative viability (Neratinib + Vorinostat; first compound 0.3162 µM) was 0.925 and the relative viability (Neratinib + Vorinostat; first compound 1 µM) was 0.29.

Cell Line SW 900 has a relative viability (Neratinib + Palbociclib; first compound 0.03162 µM) of 0.56, a relative viability (Neratinib + Palbociclib; first compound 0.1 µM) of 0.537 and a relative viability (Neratinib + Palbociclib; first compound 0.3162 µM) of 0.372. The relative viability (Neratinib + Palbociclib; first compound 1 µM) was 0.288, the relative viability (Neratinib + Dasatinib; first compound 0.01 µM) was 0.544 and the relative viability (Neratinib + Dasatinib; first compound 0.03162 µM) was 0.732. For the same cell line, the relative viability (Neratinib + Dasatinib; first compound 0.1 µM) was 0.392, the relative viability (Neratinib + Dasatinib; first compound 0.3162 µM) was 0.458 and the relative viability (Neratinib + Dasatinib; first compound 1 µM) was 0.454. It also gave a relative viability (Neratinib + Pemetrexed; first compound 0.01 µM) of 0.514, a relative viability (Neratinib + Pemetrexed; first compound 0.03162 µM) of 0.473 and a relative viability (Neratinib + Pemetrexed; first compound 0.1 µM) of 0.426. It also gave a relative viability (Neratinib + Pemetrexed; first compound 0.3162 µM) of 0.454, a relative viability (Neratinib + Pemetrexed; first compound 1 µM) of 0.371 and a relative viability (Neratinib + Vorinostat; first compound 0.01 µM) of 0.414. The relative viability (Neratinib + Vorinostat; first compound 0.03162 µM) was 0.738, the relative viability (Neratinib + Vorinostat; first compound 0.1 µM) was 0.473 and the relative viability (Neratinib + Vorinostat; first compound 0.3162 µM) was 0.451. For the same cell line, the relative viability (Neratinib + Vorinostat; first compound 1 µM) was 0.506.

For SW 1573, the relative viability (Neratinib + Palbociclib; first compound 0.01 µM) was 0.382, the relative viability (Neratinib + Palbociclib; first compound 0.03162 µM) was 0.422 and the relative viability (Neratinib + Palbociclib; first compound 0.1 µM) was 0.428. The relative viability (Neratinib + Palbociclib; first compound 0.3162 µM) was 0.289, the relative viability (Neratinib + Palbociclib; first compound 1 µM) was 0.217 and the relative viability (Neratinib + Dasatinib; first compound 0.01 µM) was 0.455. It also gave a relative viability (Neratinib + Dasatinib; first compound 0.03162 µM) of 0.519, a relative viability (Neratinib + Dasatinib; first compound 0.1 µM) of 0.455 and a relative viability (Neratinib + Dasatinib; first compound 0.3162 µM) of 0.495. It also gave a relative viability (Neratinib + Dasatinib; first compound 1 µM) of 0.322, a relative viability (Neratinib + Pemetrexed; first compound 0.03162 µM) of 0.878 and a relative viability (Neratinib + Pemetrexed; first compound 0.1 µM) of 0.651. It also gave a relative viability (Neratinib + Pemetrexed; first compound 0.3162 µM) of 0.799, a relative viability (Neratinib + Pemetrexed; first compound 1 µM) of 0.475 and a relative viability (Neratinib + Vorinostat; first compound 0.01 µM) of 0.797. For the same cell line, the relative viability (Neratinib + Vorinostat; first compound 0.03162 µM) was 0.831, the relative viability (Neratinib + Vorinostat; first compound 0.1 µM) was 0.612 and the relative viability (Neratinib + Vorinostat; first compound 0.3162 µM) was 0.623. For the same cell line, the relative viability (Neratinib + Vorinostat; first compound 1 µM) was 0.38.

UMC-11 was tested, and the relative viability (Neratinib + Palbociclib; first compound 0.01 µM) was 0.321, the relative viability (Neratinib + Palbociclib; first compound 0.03162 µM) was 0.327 and the relative viability (Neratinib + Palbociclib; first compound 0.1 µM) was 0.319. For the same cell line, the relative viability (Neratinib + Palbociclib; first compound 0.3162 µM) was 0.335, the relative viability (Neratinib + Palbociclib; first compound 1 µM) was 0.243 and the relative viability (Neratinib + Dasatinib; first compound 0.01 µM) was 0.482. It also gave a relative viability (Neratinib + Dasatinib; first compound 0.03162 µM) of 0.505, a relative viability (Neratinib + Dasatinib; first compound 0.1 µM) of 0.399 and a relative viability (Neratinib + Dasatinib; first compound 0.3162 µM) of 0.384. For the same cell line, the relative viability (Neratinib + Dasatinib; first compound 1 µM) was 0.425, the relative viability (Neratinib + Pemetrexed; first compound 0.01 µM) was 0.786 and the relative viability (Neratinib + Pemetrexed; first compound 0.03162 µM) was 0.785. The relative viability (Neratinib + Pemetrexed; first compound 0.1 µM) was 0.525, the relative viability (Neratinib + Pemetrexed; first compound 0.3162 µM) was 0.683 and the relative viability (Neratinib + Pemetrexed; first compound 1 µM) was 0.51. The relative viability (Neratinib + Vorinostat; first compound 0.01 µM) was 0.434, the relative viability (Neratinib + Vorinostat; first compound 0.03162 µM) was 0.417 and the relative viability (Neratinib + Vorinostat; first compound 0.1 µM) was 0.296. It also gave a relative viability (Neratinib + Vorinostat; first compound 0.3162 µM) of 0.332 and a relative viability (Neratinib + Vorinostat; first compound 1 µM) of 0.283.

— the supplement of paper PMC10307832
